≈ marks a conversion by molar mass, not a printed value. Calls of active or inactive are those of the source. The rule behind the calls is not given here.
Tests used:
[1] = tested on: Staphylococcus aureus; test: Bactericidal activity against […] Staphylococcus aureus ATCC33591 assessed as reduction in bacterial count at 8 times MIC measured within 8 to 12 hrs by time-kill assay; format: functional, organism-based; settings: time 8-12 hrs
[2] = tested on: Cell membrane; test: Induction of cell membrane permeability in methicillin-resistant Staphylococcus aureus ATCC33591 assessed as fold increase in fluorescence intensity at 0.5 times MIC measured after 30 mins by 7-AAD staining based analysis; format: cell membranes
[3] = tested on: HepG2; test: Cytotoxicity against human HepG2 cells assessed as survival rate at 400 uM measured after 48 hrs by CCK-8 method relative to control; format: functional; settings: read-out: Survival
[4] = tested on: Cell membrane; test: Induction of cell membrane damage in methicillin-resistant Staphylococcus aureus ATCC33591 assessed as outflow of cytoplasmic content at 1 times MIC measured after 30 mins by TEM analysis; format: cell membranes
[5] = tested on: Staphylococcus aureus; test: Antimicrobial activity against […] Staphylococcus aureus ATCC43300 measured after 24 hrs by CLSI protocol based microdilution method; format: functional
[6] = Acute toxicity in female BALB/c mouse assessed as abnormal behaviour at 800 mg/kg, po measured after 14 days; format: organism-based; settings: in vivo, 336 h, time 14 day
[7] = Acute toxicity in female BALB/c mouse assessed as effect on lung at 800 mg/kg, po measured after 14 days by H and E staining based analysis; format: organism-based; settings: in vivo, 336 h, time 14 day
[8] = tested on: Escherichia coli; test: Antimicrobial activity against Escherichia coli ATCC25922 measured after 24 hrs by CLSI protocol based microdilution method; format: functional
[9] = tested on: Staphylococcus aureus; test: Antimicrobial activity against methicillin-susceptible Staphylococcus aureus ATCC29213 measured after 24 hrs by CLSI protocol based microdilution method; format: functional
[10] = tested on: Enterococcus faecalis; test: Antimicrobial activity against Enterococcus faecalis ATCC29212 measured after 24 hrs by CLSI protocol based microdilution method; format: functional
[11] = tested on: Enterococcus faecium; test: Antimicrobial activity against Enterococcus faecium ATCC19434 measured after 24 hrs by CLSI protocol based microdilution method; format: functional
[12] = biological target: T1, Enoyl-[acyl-carrier-protein] reductase [NADPH] FabI (Staphylococcus aureus) (UniProt Q6GI75); test: Inhibition of N-terminal his 6 tagged Staphylococcus aureus Fabi (1 to […] residues) expressed in Escherichia coli BL21 at 10 uM incubated for 30 mins in presence of NADPH by fluorescence based microplate reader analysis relative to control
T1 sequence (whole entry): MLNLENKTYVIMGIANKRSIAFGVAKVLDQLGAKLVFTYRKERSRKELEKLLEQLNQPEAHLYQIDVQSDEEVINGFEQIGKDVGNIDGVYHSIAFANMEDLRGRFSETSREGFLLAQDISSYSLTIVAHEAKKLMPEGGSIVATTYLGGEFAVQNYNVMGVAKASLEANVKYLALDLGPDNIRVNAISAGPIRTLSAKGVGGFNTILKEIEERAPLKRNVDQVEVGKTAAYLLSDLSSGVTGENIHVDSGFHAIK

[13] = tested on: Cell membrane; test: Induction of cell membrane permeability in methicillin-resistant Staphylococcus aureus ATCC33591 assessed as fold increase in fluorescence intensity at 1 times MIC measured after 30 mins by 7-AAD staining based analysis; format: cell membranes
[14] = Acute toxicity in female BALB/c mouse assessed as effect on liver at 800 mg/kg, po measured after 14 days by H and E staining based analysis; format: organism-based; settings: in vivo, 336 h, time 14 day
[15] = tested on: Cell membrane; test: Induction of cell membrane damage in methicillin-resistant Staphylococcus aureus ATCC33591 assessed as broken cell surface at 1 times MIC measured after 30 mins by TEM analysis; format: cell membranes
[16] = Clearance in female Sprague-Dawley rat at 5 mg/kg, iv measured upto 24 hrs by LC-MS analysis; format: ADME, organism-based; settings: in vivo
[17] = Aqueous solubility of the compound measured after 24 hrs by HPLC analysis; format: physicochemical
[18] = tested on: Staphylococcus aureus; test: Antimicrobial activity against Staphylococcus aureus RN4220 harbouring pCM-sfgfp::fabi (promoter fabi) measured after 24 hrs by CLSI protocol based microdilution method; format: functional
[19] = tested on: Staphylococcus aureus; test: Antimicrobial activity against methicillin-susceptible Staphylococcus aureus ATCC25923 measured after 24 hrs by CLSI protocol based microdilution method; format: functional
[20] = Drug concentration in BALB/c mouse plasma at 400 mg/kg, po measured after 1 hr by LC-MS analysis; format: ADME, organism-based
[21] = tested on: Acinetobacter baumannii; test: Antimicrobial activity against Acinetobacter baumannii ATCC19606 measured after 24 hrs by CLSI protocol based microdilution method; format: functional
[22] = Acute toxicity in female BALB/c mouse assessed as effect on body weight at 800 mg/kg, po measured after 14 days; format: organism-based; settings: in vivo, 336 h, time 14 day
[23] = tested on: Staphylococcus aureus; test: Antimicrobial activity against […] Staphylococcus aureus USA300 measured after 24 hrs by CLSI protocol based microdilution method; format: functional
[24] = tested on: Cell membrane; test: Induction of cell membrane damage in methicillin-resistant Staphylococcus aureus ATCC33591 assessed as increase in red fluorescence at 1 times MIC measured after 30 mins by […] analysis; format: cell membranes
[25] = tested on: Staphylococcus aureus; test: Antimicrobial activity against […] Staphylococcus aureus NRS271 measured after 24 hrs by CLSI protocol based microdilution method; format: functional
[26] = tested on: Staphylococcus aureus; test: Antimicrobial activity against Staphylococcus aureus RN4220 harbouring pCM-sfgfp measured after 24 hrs by CLSI protocol based microdilution method; format: functional
[27] = Metabolic stability in human liver microsomes assessed as half life at 1 uM measured upto 120 mins in presence of NADPH by LC-MS analysis; format: ADME, Microsome
[28] = Metabolic stability in mouse liver microsomes assessed as half life at 1 uM measured upto 120 mins in presence of NADPH by LC-MS analysis; format: ADME, Microsome
[29] = tested on: Staphylococcus aureus; test: Antimicrobial activity against […] Staphylococcus aureus ATCC33591 assessed as reduction in lipid content at 8 times MIC measured after 4 hrs by microplate reader based analysis; format: functional, organism-based
[30] = tested on: Cell membrane; test: Induction of cell membrane permeability in methicillin-resistant Staphylococcus aureus ATCC33591 assessed as increase in fluorescence measured after 30 mins by 7-AAD staining based analysis; format: cell membranes
[31] = Cmax in female Sprague-Dawley rat at 5 mg/kg, iv measured upto 24 hrs by LC-MS analysis; format: ADME, organism-based; settings: in vivo
[32] = Acute toxicity in female BALB/c mouse assessed as effect on spleen at 800 mg/kg, po measured after 14 days by H and E staining based analysis; format: organism-based; settings: in vivo, 336 h, time 14 day
[33] = biological target: T1, Enoyl-[acyl-carrier-protein] reductase [NADPH] FabI (Staphylococcus aureus); test: Binding affinity to N-terminal his 6 tagged Staphylococcus aureus Fabi (1 to […] residues) expressed in Escherichia coli BL21 assessed as increase in thermal stability at 10 ug/ml measured after 1 hr by […] assay; settings: dose 10.0 µg/ml
[34] = AUC (0 to t) in female Sprague-Dawley rat at 5 mg/kg, iv measured upto 24 hrs by LC-MS analysis; format: ADME, organism-based; settings: in vivo
[35] = tested on: Cell membrane; test: Induction of cell membrane permeability in methicillin-resistant Staphylococcus aureus ATCC33591 assessed as fold increase in fluorescence intensity at 0.25 times MIC measured after 30 mins by Annexin V-FITC staining based analysis; format: cell membranes
[36] = Tmax in female Sprague-Dawley rat at 20 mg/kg, po measured upto 24 hrs by LC-MS analysis; format: ADME, organism-based; settings: in vivo

SMILES	Activity [1]	fold change (FC) [2]	viability at 400 µM [3] [%]	Activity [4]	MIC [5] [µg/mL]	Activity [6]	Activity [7]	MIC [8] [µg/mL]	MIC [9] [µg/mL]	MIC [10] [µg/mL]	MIC [11] [µg/mL]	inhibition [12] [%]	fold change (FC) [13]	Activity [14]	Activity [15]	clearance [16] [mL/min/kg]	solubility at 24 h [17] [µg/mL]	MIC [18] [µg/mL]	MIC [19] [µg/mL]	concentration at 1 h [20] [ng/mL]	also measured
Cc1c(Br)cccc1N1CC(c2nc3ccccc3n2C)CC1=O (configuration not stated)	Below limit of detection	1.6	> 70	Active	1 (≈ 2.6 µM)	Non-Toxic	Non-Toxic	> 32	1 (≈ 2.6 µM)	> 32	> 32	98.7	1.9	Non-Toxic	Active	26.7	388 (≈ 1010 µM)	32 (≈ 83.3 µM)	1 (≈ 2.6 µM)	24000	MIC [21]: > 32 µg/mL; Activity [22]: Non-Toxic; MIC [23]: 1 µg/mL (≈ 2.6 µM); Activity [24]: Active; MIC [25]: 2 µg/mL (≈ 5.2 µM); MIC [26]: 2 µg/mL (≈ 5.2 µM); half-life at 1 µM [27]: 63.6 min; half-life at 1 µM [28]: 27.7 min; Activity [29]: Active; Activity [30]: Active; Cmax [31]: 3240 ng/mL; Activity [32]: Non-Toxic; Activity [33]: Active; AUCt [34]: 3238.8 ng·h/mL; fold change (FC) [35]: 1.3; Tmax [36]: 60 min
COc1c(Br)cccc1N1CC(c2nc3ccccc3n2C)CC1=O (configuration not stated)	Below limit of detection	1.5	> 70	Active	2 (≈ 5 µM)	Non-Toxic	Non-Toxic	> 32	1 (≈ 2.5 µM)	> 32	> 32	99.3	1.8	Non-Toxic	Active	36.7	467 (≈ 1170 µM)	32 (≈ 79.9 µM)	2 (≈ 5 µM)	18100	MIC [21]: > 32 µg/mL; Activity [22]: Non-Toxic; MIC [23]: 1 µg/mL (≈ 2.5 µM); Activity [24]: Active; MIC [25]: 2 µg/mL (≈ 5 µM); MIC [26]: 2 µg/mL (≈ 5 µM); half-life at 1 µM [27]: 38.3 min; half-life at 1 µM [28]: 13.2 min; Activity [29]: Active; Activity [30]: Active; Cmax [31]: 2720 ng/mL; Activity [32]: Non-Toxic; Activity [33]: Active; AUCt [34]: 2264.4 ng·h/mL; fold change (FC) [35]: 1.4; Tmax [36]: 30 min

Reference: ChEMBL document CHEMBL5500393, “Discovery and Optimization of Novel SaFabI Inhibitors as Specific Therapeutic Agents for MRSA Infection” (J Med Chem, 2024)
